For one data set, the system named is S. pneumoniae ATCC 33400. Put plainly: microbe, parasite or virus in culture. Format: cell-based, Streptococcus pneumoniae. To be noted: Streptococcus pneumoniae, ATCC33400, 24 h. The procedure: (§1) The compounds, along with standard antibiotics were serially diluted twofold across the wells of 96-well non-binding surface (NBS) polystyrene plates (Corning 3641). […] Standards ranged from 64 to 0.03 µg mL^−1 and compounds from 8 to 0.003 µg mL^−1 with final assay volumes of 100 µL per well. Gram-positive bacteria were cultured in Mueller Hinton broth (MHB) (Bactolaboratories, Cat. no. 211443) at 37 °C overnight. A sample of each culture was then diluted 40-fold in fresh MHB and incubated at 37 °C for 2–3 h. The resultant mid-log phase cultures were added to the compound-containing 96-well plates to give a final cell density of 5 × 10^5 colony forming unit (CFU) mL^−1. All the plates were covered and incubated at 37 °C for 24 h. MICs were the lowest concentration showing no visible growth.

Data set [1] concerns S. pneumoniae ATCC 700677 MDR. Put plainly: microbe, parasite or virus in culture. Format: cell-based, Streptococcus pneumoniae. To be noted: Streptococcus pneumoniae, ATCC700677, 24 h. The procedure: as §1
Data set [2] has as its system S. aureus ATCC 43300 MRSA. Briefly: microbe, parasite or virus in culture. Format: cell-based, Staphylococcus aureus. Conditions: Staphylococcus aureus, 24 h. The procedure:
as §1

A short description of a further data set: Haemolysis assay. It counts as cell-based. Conditions: human.
The conditions of data set [3]: 37 °C, 20 µM.
Another data set deals with S. aureus ATCC 43300. Put plainly: Membrane depolarisation assay (diSC3(5)). Format: cell-based, Staphylococcus aureus. To be noted: 16 µg mL^−1, 30 min, MRSA ATCC 43300. How it is done:
Antibiotic-induced bacterial cytoplasmic membrane depolarisation was determined using the fluorescent dye 3,3-dipropylthiacarbocyanine diSC3(5) (Sigma Aldrich, Australia) as previously described. Briefly, early exponential phase cells were pelleted and washed twice in 10 mM HEPES buffer (pH 7.4) containing 50 µg mL^−1 of CaCl2 and 5 mM Glucose, and then re-suspended in the same buffer (2 × 10^8 CFU mL^−1). diSC3(5) was added to a final concentration of 1.5 µM and incubated at room temperature in the dark to enable dye uptake and fluorescence quenching. After 30 min, cells were diluted 50-fold in assay buffer and 45 µL of cells were added to a 384-well black walled polystyrene plate (Corning, CLS3573) (Note: NBS plates were not employed, and no polysorbate-80 was added to avoid potential effects on membrane permeability, or interference with fluorescence as previously reported. The MICs of compounds in polystyrene plates are listed in Supplementary Table 12). Background data was collected before adding compounds using a Tecan Infinite® m1000 Pro Multi-mode reader (excitation/emission 612/665 nm) to ensure fluorescence quenching. Compounds were added to a final concentration of 16 µg mL^−1 and fluorescence was monitored for 30 min. Data were corrected by subtraction of background response (diSC3(5) in the presence of untreated cells, no compound). […] Each sample was tested in quadruplicate and independent assays were performed twice showing similar results. Data were analysed and presented using Prism software.

A further data set is described as follows: Cytotoxicity MTT assay. Format: cell-based, human. To be noted: human.

Each structure is given as a SMILES string. In brackets after ≈: the same amount, converted by molar mass. Where two headings read alike, the source gives them in different places. A value given as a limit tells only on which side of the number the result lay.

For `CN[C@H](CC(C)C)C(=O)N[C@H]1C(=O)N[C@@H](CC(N)=O)C(=O)N[C@H]2C(=O)N[C@H]3C(=O)N[C@H](C(=O)N[C@H](C(=O)O)c4cc(O)cc(O)c4-c4cc3ccc4O)[C@H](O)c3ccc(c(Cl)c3)Oc3cc2cc(c3O[C@@H]2O[C@H](CO)[C@@H](O)[C@H](O)[C@H]2O[C@H]2C[C@](C)(N)[C@H](O)[C@H](C)O2)Oc2ccc(cc2Cl)[C@H]1O` [Compound 1, Vancomycin], the MIC stood at 0.5 µg/mL (≈ 0.345 µM) with S. pneumoniae ATCC 33400 (read-out: MIC S. pneumoniae ATCC 33400, 1% Survanta); 0.5 µg/mL (≈ 0.345 µM) in the data set with S. pneumoniae ATCC 33400 (read-out: MIC S. pneumoniae ATCC 33400, 5% Survanta); 0.5 µg/mL (≈ 0.345 µM) in the data set with S. pneumoniae ATCC 33400 (read-out: MIC S. pneumoniae ATCC 33400, no added Survanta); 0.5 µg/mL (≈ 0.345 µM) in data set [1] (read-out: MIC S. pneumoniae ATCC 700677 MDR, 1% Survanta); 0.5 µg/mL (≈ 0.345 µM) in data set [1] (read-out: MIC S. pneumoniae ATCC 700677 MDR, 5% Survanta); 0.5 µg/mL (≈ 0.345 µM) in data set [1] (read-out: MIC S. pneumoniae ATCC 700677 MDR, no added Survanta). Further, the MIC in data set [2] (read-out: MIC S. aureus ATCC 43300 MRSA, 1% Survanta) was determined as 0.5 µg/mL (≈ 0.345 µM); in data set [2] (read-out: MIC S. aureus ATCC 43300 MRSA, 5% Survanta) it was 0.5 µg/mL (≈ 0.345 µM); in data set [2] (read-out: MIC S. aureus ATCC 43300 MRSA, no added Survanta) it was 0.5 µg/mL (≈ 0.345 µM). Moreover, in the data set “Haemolysis assay” (25 µg mL-1, read-out: % Human Whole Blood Haemolysis), the hemolysis at 3 h, 25 µg mL-1 is 0.1%. Further, the hemolysis at 3 h, 50 µg mL-1 in the data set “Haemolysis assay” (50 µg mL-1, read-out: % Human Whole Blood Haemolysis) is 0.4%. Also, in the data set “Haemolysis assay” (100 µg mL-1, read-out: % Human Whole Blood Haemolysis), the hemolysis at 3 h, 100 µg mL-1 was found to be 0.3%. Besides, the hemolysis at 3 h, 200 µg mL-1 in “Haemolysis assay” (200 µg mL-1, read-out: % Human Whole Blood Haemolysis) is 0.8%. For the same compound, in “Haemolysis assay” (400 µg mL-1, read-out: % Human Whole Blood Haemolysis), the hemolysis at 3 h, 400 µg mL-1 was 0.8%. Also, the hemolysis at 3 h, 800 µg mL-1 in “Haemolysis assay” (800 µg mL-1, read-out: % Human Whole Blood Haemolysis) was found to be 0.8%. Further, the hemolysis at 3 h, 1600 µg mL-1 in the data set “Haemolysis assay” (1600 µg mL-1, read-out: % Human Whole Blood Haemolysis) was 1.5%. The “% compound remaining after incubation in 50% human plasma, 0h” value in data set [3] worked out at 100%. The “Dissipation of membrane potential (diSC3(5) fluorescence)” value in the data set on S. aureus ATCC 43300 is “no effect”. For the same compound, in “Cytotoxicity MTT assay” (24 h, MTT, 1% FBS, read-out: Cytotoxicity CC50 HepG2), the CC50 at 24 h came to 6.3 mM.

For `CCCCCCCCCC(=O)N[C@@H](Cc1c[nH]c2ccccc12)C(=O)N[C@H](CC(N)=O)C(=O)N[C@@H](CC(=O)O)C(=O)N[C@@H]1C(=O)NCC(=O)N[C@@H](CCCN)C(=O)N[C@@H](CC(=O)O)C(=O)N[C@H](C)C(=O)N[C@@H](CC(=O)O)C(=O)NCC(=O)N[C@H](CO)C(=O)N[C@@H]([C@H](C)CC(=O)O)C(=O)N[C@@H](CC(=O)c2ccccc2N)C(=O)O[C@@H]1C` [Compound 4, Daptomycin], the MIC with S. pneumoniae ATCC 33400 (1% Survanta, read-out: MIC S. pneumoniae ATCC 33400) is above 8 µg/mL; with S. pneumoniae ATCC 33400 (5% Survanta, read-out: MIC S. pneumoniae ATCC 33400) it was above 8 µg/mL; in the data set on S. pneumoniae ATCC 33400 (no added Survanta, read-out: MIC S. pneumoniae ATCC 33400), 2 to 4 µg/mL (≈ 1.23 to 2.47 µM); in data set [1] (1% Survanta, read-out: MIC S. pneumoniae ATCC 700677 MDR) it was above 8 µg/mL; in data set [1] (5% Survanta, read-out: MIC S. pneumoniae ATCC 700677 MDR), above 8 µg/mL; in data set [1] (no added Survanta, read-out: MIC S. pneumoniae ATCC 700677 MDR), 4 µg/mL (≈ 2.47 µM). Also, the MIC in data set [2] (1% Survanta, read-out: MIC S. aureus ATCC 43300 MRSA) was above 8 µg/mL; in data set [2] (5% Survanta, read-out: MIC S. aureus ATCC 43300 MRSA), above 8 µg/mL; in data set [2] (no added Survanta, read-out: MIC S. aureus ATCC 43300 MRSA), 2 µg/mL (≈ 1.23 µM). Further, in “Haemolysis assay” (% Human Whole Blood Haemolysis), the hemolysis at 3 h, 25 µg mL-1 was 0%. The hemolysis at 3 h, 50 µg mL-1 in the data set “Haemolysis assay” (% Human Whole Blood Haemolysis) was found to be 0.4%. The hemolysis at 3 h, 100 µg mL-1 in “Haemolysis assay” (% Human Whole Blood Haemolysis) was 0%. In addition, in the data set “Haemolysis assay” (% Human Whole Blood Haemolysis), the hemolysis at 3 h, 200 µg mL-1 is 0.3%. The hemolysis at 3 h, 400 µg mL-1 in “Haemolysis assay” (% Human Whole Blood Haemolysis) was 0.9%. For the same compound, the hemolysis at 3 h, 800 µg mL-1 in the data set “Haemolysis assay” (% Human Whole Blood Haemolysis) worked out at 0.3%. For the same compound, the hemolysis at 3 h, 1600 µg mL-1 in the data set “Haemolysis assay” (% Human Whole Blood Haemolysis) worked out at 1.6%. In addition, the “Dissipation of membrane potential (diSC3(5) fluorescence)” value with S. aureus ATCC 43300 is “no effect”. Also, in the data set “Cytotoxicity MTT assay”, the CC50 at 24 h is above 0.5 mM.

The values above are taken from PMC5750218, “Protein-inspired antibiotics active against vancomycin- and daptomycin-resistant bacteria” (Nature Communications, 2018).
